# Experimental data as given in ChEMBL document CHEMBL1201861, “Genomics of Drug Sensitity in Cancer screening data, Wellcome Trust Sanger Institute”.
# Key:
# Assay in all cases: cells
# SNB-75 = assay type: functional, cell-based, Homo sapiens; conditions: Homo sapiens, SNB-75;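 further: cell viability assay measuring growth inhibition of human SNB-75 cells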
# D-502MG = assay type: functional, cell-based, Homo sapiens; conditions: Homo sapiens, D-502MG
# IST-SL1 = assay type: functional, cell-based, Homo sapiens; conditions: Homo sapiens, IST-SL1;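 further: growth inhibition of human IST-SL1 cells, read out with a cell viability assay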
# GAK = assay type: functional, cell-based, Homo sapiens; conditions: Homo sapiens, GAK;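 further: cell growth inhibition read out by a cell viability assay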
# COR-L88 = assay type: functional, cell-based, Homo sapiens; conditions: Homo sapiens, COR-L88;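 further: growth inhibition of COR-L88 cells, read out with a cell viability assay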
# KG-1 = assay type: functional, cell-based, Homo sapiens; conditions: Homo sapiens, KG-1;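 further: growth inhibition of KG-1 cells, read out by a cell viability assay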
# HDLM-2 = assay type: functional, cell-based, Homo sapiens; conditions: Homo sapiens, HDLM-2;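 further: cell viability assay measuring suppression of HDLM-2 proliferation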
# EW-18 = assay type: functional, cell-based, Homo sapiens; conditions: Homo sapiens, EW-18; read-out: IC50;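 further: growth inhibition of EW-18 cells, read out by a cell viability assay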
# MMAC-SF = assay type: functional, cell-based; conditions: Homo sapiens;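 further: growth inhibition of human MMAC-SF cells, read out with a cell viability assay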
# KGN = assay type: functional, cell-based, Homo sapiens; conditions: Homo sapiens, KGN;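 further: growth inhibition of KGN cells, read out with a cell viability assay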
# ETK-1 = assay type: functional, cell-based, Homo sapiens; conditions: Homo sapiens, ETK-1;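 further: growth inhibition of human ETK-1 cells, read out with a cell viability assay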
# NCI-H226 = assay type: functional, cell-based, Homo sapiens; conditions: Homo sapiens, NCI-H226;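 further: cell viability read-out used to gauge growth inhibition of the cells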
# UACC-257 = assay type: functional, cell-based, Homo sapiens; conditions: Homo sapiens, UACC-257
# KY821 = assay type: functional, cell-based, Homo sapiens; conditions: Homo sapiens, KY821;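 further: growth inhibition of human KY821 cells, read out by a cell viability assay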
# IA-LM = assay type: functional, cell-based; conditions: Homo sapiens;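 further: cell viability assay measuring growth inhibition of human IA-LM cells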
# COLO-668 = assay type: functional, cell-based, Homo sapiens; conditions: Homo sapiens, COLO-668
# LB2518-MEL = assay type: functional, cell-based; conditions: Homo sapiens;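 further: growth inhibition of human LB2518-MEL cells, measured with a cell viability assay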
# J-RT3-T3-5 = assay type: functional, cell-based, Homo sapiens; conditions: Homo sapiens, J-RT3-T3-5;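 further: cell viability assay measuring growth inhibition of human J-RT3-T3-5 cells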
# SW 962 = assay type: functional, cell-based, Homo sapiens; conditions: Homo sapiens, SW 962;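 further: growth inhibition of human SW962 cells, read out by a cell viability assay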
# MZ7-mel = assay type: functional, cell-based, Homo sapiens; conditions: Homo sapiens, MZ7-mel;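 further: growth inhibition of human MZ7-mel cells, measured by a cell viability assay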
# OVCAR-4 = assay type: functional, cell-based, Homo sapiens; conditions: Homo sapiens, OVCAR-4;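 further: growth inhibition of human OVCAR-4 cells, measured with a cell viability assay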
# MN-60 = assay type: functional, cell-based, Homo sapiens; conditions: Homo sapiens, MN-60;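 further: growth inhibition of the MN-60 cell line, determined with a cell viability assay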
# MS-1 = assay type: functional, cell-based, Homo sapiens; conditions: Homo sapiens, MS-1;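 further: growth inhibition of MS-1 cells, read out by cell viability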
# KU812 cell line = assay type: functional, cell-based, Homo sapiens; conditions: Homo sapiens, KU812;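 further: growth inhibition of KU812 cells, read out with a cell viability assay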
# no-11 = assay type: functional, cell-based, Homo sapiens; conditions: Homo sapiens;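 further: growth inhibition of human NO-11 cells, read out with a cell viability assay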
# OCI-AML2 = assay type: functional, cell-based, Homo sapiens; conditions: Homo sapiens, OCI-AML2;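 further: growth inhibition of OCI-AML2 cells, read out with a cell viability assay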
# HCC1187 = assay type: functional, cell-based, Homo sapiens; conditions: Homo sapiens, HCC1187;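 further: growth inhibition of HCC1187 cells, read out with a cell viability assay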
# PC-3 = assay type: functional, cell-based; conditions: Homo sapiens;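 further: cell viability assay measuring growth inhibition of PC-3 cells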
# NCI-H1355 = assay type: functional, cell-based, Homo sapiens; conditions: Homo sapiens, NCI-H1355;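 further: growth inhibition of human NCI-H1355 cells, read out by a cell viability assay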
# GI-ME-N = assay type: functional, cell-based, Homo sapiens; conditions: Homo sapiens, GI-ME-N;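 further: growth inhibition of human GI-ME-N cells, read out with a cell viability assay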
# HCE-4 = assay type: functional, cell-based; conditions: Homo sapiens;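 further: cell viability assay measuring inhibition of growth in the human HCE-4 cell line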
# NTERA-2-cl-D1 = assay type: functional, cell-based, Homo sapiens; conditions: Homo sapiens, NTERA-2-cl-D1;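 further: inhibition of cell growth, measured with a cell viability assay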
# KLE = assay type: functional, cell-based; conditions: Homo sapiens;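 further: growth inhibition of human KLE cells, read out with a cell viability assay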
# EM-2 = assay type: functional, cell-based, Homo sapiens; conditions: Homo sapiens, EM-2;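 further: growth inhibition of EM-2 cells, read out with a cell viability assay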
# OCUB-M = assay type: functional, cell-based; conditions: Homo sapiens;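 further: growth inhibition of the cancer cell line, read out through a cell viability assay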
# CTV-1 = assay type: functional, cell-based, Homo sapiens; conditions: Homo sapiens, CTV-1;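 further: growth inhibition of the cell line, read out with a cell viability assay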
# U-266 = assay type: functional, cell-based, Homo sapiens; conditions: Homo sapiens, U-266
# A4-Fuk = assay type: functional, cell-based, Homo sapiens; conditions: Homo sapiens, A4-Fuk;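 further: growth inhibition of A4-Fuk cells, read out by a cell viability assay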
# NB5 = assay type: functional, cell-based, Homo sapiens; conditions: Homo sapiens, NB5;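 further: growth inhibition of NB5 cells, read out as cell viability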
# NCI-N87 = assay type: functional, cell-based; conditions: Homo sapiens;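 further: growth inhibition of human NCI-N87 cells, read out with a cell viability assay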
# RXF 393 = assay type: functional, cell-based, Homo sapiens; conditions: Homo sapiens, RXF 393;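 further: growth inhibition of human RXF 393 cells, read out with a cell viability assay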
# QIMR-WIL = assay type: functional, cell-based, Homo sapiens; conditions: Homo sapiens, QIMR-WIL;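 further: growth inhibition of QIMR-WIL cells, read out with a cell viability assay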
# SNU-C2B = assay type: functional, cell-based; conditions: Homo sapiens;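 further: cell viability readout used to measure compound-driven suppression of SNU-C2B cell proliferation, IC50 marking half-maximal growth inhibition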
# Ramos-2G6-4C10 = assay type: functional, cell-based, Homo sapiens; conditions: Homo sapiens, Ramos-2G6-4C10;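 further: growth inhibition of the cell line, measured by a cell viability read-out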
# GI-1 = assay type: functional, cell-based, Homo sapiens; conditions: Homo sapiens, GI-1;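 further: growth inhibition of human GI-1 cells, measured with a cell viability readout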
# COLO-800 = assay type: functional, cell-based, Homo sapiens; conditions: Homo sapiens, COLO-800;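 further: growth inhibition of COLO-800 cells, read out with a cell viability assay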
# SH-4 = assay type: functional, cell-based; conditions: Homo sapiens;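 further: growth inhibition of SH-4 cells, read out with a cell viability assay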
# HCE-T = assay type: functional, cell-based, Homo sapiens; conditions: Homo sapiens, HCE-T;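 further: cell viability assay read-out, reporting inhibition of HCE-T cell growth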
# LXF-289 cell line = assay type: functional, cell-based; conditions: Homo sapiens
# KM12 = assay type: functional, cell-based, Homo sapiens; conditions: Homo sapiens, KM12;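 further: KM12 cell growth inhibition, read out with a cell viability assay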
# KURAMOCHI = assay type: functional, cell-based, Homo sapiens; conditions: Homo sapiens, KURAMOCHI;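 further: growth inhibition of KURAMOCHI cells, read out with a cell viability assay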
smiles,measurement,setting,value
Cc1ccc(-n2nc(C(C)(C)C)cc2NC(=O)Nc2ccc(OCCN3CCOCC3)c3ccccc23)cc1 [DORAMAPIMOD],IC50,SNB-75,> 10 µM
same,IC50,D-502MG,> 10 µM
same,IC50,IST-SL1,> 10 µM
same,IC50,COR-L88,> 10 µM
same,IC50,KG-1,> 10 µM
same,IC50,HDLM-2,> 10 µM
same,IC50,EW-18,> 10 µM
same,IC50,MMAC-SF,> 10 µM
same,IC50,KGN,> 10 µM
same,IC50,ETK-1,> 10 µM
same,IC50,NCI-H226,> 10 µM
same,IC50,UACC-257,> 10 µM
same,IC50,KY821,> 10 µM
same,IC50,IA-LM,> 10 µM
same,IC50,COLO-668,> 10 µM
same,IC50,LB2518-MEL,> 10 µM
same,IC50,J-RT3-T3-5,> 10 µM
same,IC50,SW 962,> 10 µM
same,IC50,MZ7-mel,> 10 µM
same,IC50,OVCAR-4,> 10 µM
same,IC50,MN-60,> 10 µM
same,IC50,MS-1,> 10 µM
same,IC50,KU812 cell line,> 10 µM
same,IC50,no-11,> 10 µM
same,IC50,OCI-AML2,> 10 µM
same,IC50,HCC1187,> 10 µM
same,IC50,PC-3,> 10 µM
same,IC50,NCI-H1355,> 10 µM
same,IC50,GI-ME-N,> 10 µM
same,IC50,HCE-4,> 10 µM
same,IC50,NTERA-2-cl-D1,> 10 µM
same,IC50,KLE,> 10 µM
same,IC50,EM-2,> 10 µM
same,IC50,OCUB-M,> 10 µM
same,IC50,CTV-1,> 10 µM
same,IC50,U-266,> 10 µM
same,IC50,A4-Fuk,> 10 µM
same,IC50,NB5,> 10 µM
same,IC50,NCI-N87,> 10 µM
same,IC50,RXF 393,> 10 µM
same,IC50,QIMR-WIL,> 10 µM
same,IC50,SNU-C2B,> 10 µM
same,IC50,Ramos-2G6-4C10,> 10 µM
same,IC50,GI-1,> 10 µM
same,IC50,COLO-800,> 10 µM
same,IC50,SH-4,> 10 µM
same,IC50,HCE-T,> 10 µM
same,IC50,LXF-289 cell line,> 10 µM
same,IC50,KM12,> 10 µM
same,IC50,KURAMOCHI,> 10 µM
CN(NC(=O)CC(=O)NN(C)C(=S)c1ccccc1)C(=S)c1ccccc1 [ELESCLOMOL],IC50,SNB-75,0.105 µM
same,IC50,D-502MG,0.0258 µM
same,IC50,IST-SL1,0.0523 µM
same,IC50,GAK,> 0.2 µM
same,IC50,COR-L88,> 0.2 µM
same,IC50,KG-1,0.0397 µM
same,IC50,HDLM-2,> 0.2 µM
same,IC50,EW-18,> 0.2 µM
same,IC50,MMAC-SF,0.0843 µM
same,IC50,KGN,> 0.2 µM
same,IC50,ETK-1,0.035 µM
same,IC50,NCI-H226,0.131 µM
same,IC50,UACC-257,0.022 µM
same,IC50,KY821,> 0.2 µM
same,IC50,IA-LM,0.0844 µM
same,IC50,COLO-668,> 0.2 µM
same,IC50,LB2518-MEL,0.0669 µM
same,IC50,J-RT3-T3-5,0.0144 µM
same,IC50,SW 962,0.111 µM
same,IC50,MZ7-mel,0.0127 µM
same,IC50,OVCAR-4,0.00587 µM
same,IC50,MN-60,0.0143 µM
same,IC50,MS-1,0.166 µM
same,IC50,KU812 cell line,> 0.2 µM
same,IC50,no-11,0.0233 µM
same,IC50,OCI-AML2,0.136 µM
same,IC50,HCC1187,0.0793 µM
same,IC50,PC-3,0.00789 µM
same,IC50,NCI-H1355,0.00889 µM
same,IC50,GI-ME-N,> 0.2 µM
same,IC50,HCE-4,0.0591 µM
same,IC50,NTERA-2-cl-D1,0.0194 µM
same,IC50,KLE,> 0.2 µM
same,IC50,EM-2,> 0.2 µM
same,IC50,OCUB-M,0.195 µM
same,IC50,CTV-1,> 0.2 µM
same,IC50,U-266,0.0158 µM
same,IC50,A4-Fuk,0.108 µM
same,IC50,NB5,0.0307 µM
same,IC50,NCI-N87,> 0.2 µM
same,IC50,RXF 393,0.0134 µM
same,IC50,QIMR-WIL,0.0329 µM
same,IC50,SNU-C2B,> 0.2 µM
same,IC50,Ramos-2G6-4C10,0.012 µM
same,IC50,GI-1,0.00826 µM
same,IC50,COLO-800,0.0299 µM
same,IC50,SH-4,> 0.2 µM
same,IC50,HCE-T,0.00445 µM
same,IC50,LXF-289 cell line,0.014 µM
same,IC50,KM12,> 0.2 µM
same,IC50,KURAMOCHI,> 0.2 µM
